In brackets after ≈: the same amount, converted by molar mass. Activity calls are given as the source filed them. The rule behind the calls is not given here.
What was measured:
[1] = Chemical stability in simulated intestinal fluid assessed as compound remaining at 4 uM after 15 mins; format: physicochemical; settings: read-out: Stability
[2] = test system: Mus musculus; test: Inhibition of chymotrypsin-like activity of 20S proteasome in BALB/c mouse adrenal gland at 20 mg/kg, po after 1 hr; format: functional; parameters: scale not given: the % may be the effect or the level left
[3] = Inhibition of chymotrypsin-like activity of human 20S proteasome beta 5 subunit by proteasome active site ELISA
[4] = test system: Mus musculus; test: Inhibition of chymotrypsin-like activity of 20S proteasome in BALB/c mouse adrenal gland at 10 mg/kg, po after 1 hr; format: functional; parameters: scale not given: the % may be the effect or the level left
[5] = species: Homo sapiens; test: Ratio of Kinact to Ki for chymotrypsin-like activity of human 26S proteasome by spectrophotometry; parameters: unit not given here
[6] = Cytotoxicity against human MESSA cells assessed as cell viability after 72 hrs by CellTiter-Glo luminescent assay; format: functional, cell-based; settings: MES-SA
[7] = Metabolic stability in human liver microsomes assessed as extraction ratio at 1 uM; format: ADME, Microsome
[8] = Solubility in ethanol-PS80 citrate buffer at pH 3.5 by HPLC analysis; format: physicochemical
[9] = Cytotoxicity against multidrug resistance transporter expressing doxorubicin resistant human MESSA cells assessed as cell viability after 72 hrs by CellTiter-Glo luminescent assay; format: functional, cell-based; settings: MES-SA
[10] = biological target: T1, Proteasome subunit beta type-8 (Homo sapiens, UniProt P28062)
T1 sequence (P28062 whole entry): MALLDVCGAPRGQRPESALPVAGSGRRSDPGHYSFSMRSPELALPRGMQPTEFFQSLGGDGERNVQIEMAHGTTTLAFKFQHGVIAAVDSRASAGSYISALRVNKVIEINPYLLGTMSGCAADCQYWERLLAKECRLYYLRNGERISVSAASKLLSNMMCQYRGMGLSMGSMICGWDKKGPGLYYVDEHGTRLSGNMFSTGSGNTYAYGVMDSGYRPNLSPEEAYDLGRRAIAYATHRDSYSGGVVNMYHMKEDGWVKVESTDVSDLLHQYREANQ
Description: Inhibition of chymotrypsin-like activity of LMP7 immunoproteasome by proteasome active site ELISA

[11] = Inhibition of chymotrypsin-like activity of human 20S proteasome by spectrofluorimetry
[12] = Inhibition of chymotrypsin-like activity of 20S proteasome in human MOLT4 cells after 1 hr by […]; format: cell-based; settings: MOLT-4, 1 h
[13] = Metabolic stability in mouse liver microsomes assessed as extraction ratio at 1 uM; format: ADME, Microsome
[14] = test system: RL; test: Antitumor activity against human RL cells xenografted in BNX mouse assessed as time to achieve significant decrease in tumor volume at 20 mg/kg, po administered as weekly qdx2 schedule; format: functional, organism-based; parameters: dose 20 mg/kg
[15] = Toxicity in po dosed BNX mouse xenografted with human RL cells assessed as maximum tolerated dose; format: organism-based; settings: in vivo
[16] = test system: CT26; test: Antitumor activity against mouse CT26 cells xenografted in BALB/c mouse assessed as time to achieve significant decrease in tumor volume at 20 mg/kg, po administered 3 days post tumor challenge in weekly qdx2 schedule; format: functional, organism-based; parameters: dose 20 mg/kg
[17] = Toxicity in po dosed BALB/c mouse xenografted with mouse CT26 cells assessed as maximum tolerated dose; format: organism-based; settings: in vivo
[18] = test system: Mus musculus; test: Inhibition of chymotrypsin-like activity of 20S proteasome in BALB/c mouse adrenal gland 40 mg/kg, po after 1 hr; format: functional; parameters: scale not given: the % may be the effect or the level left
[19] = test system: Mus musculus; test: Inhibition of chymotrypsin-like activity of 20S proteasome in BALB/c mouse blood at 40 mg/kg, po after 1 hr; format: functional; parameters: scale not given: the % may be the effect or the level left
[20] = Chemical stability in simulated gastric fluid assessed as compound remaining at 4 uM after 15 mins; format: physicochemical; settings: read-out: Stability
[21] = test system: Mus musculus; test: Inhibition of chymotrypsin-like activity of 20S proteasome in BALB/c mouse liver at 40 mg/kg, po after 1 hr; format: functional; parameters: scale not given: the % may be the effect or the level left
[22] = test system: RL; test: Antitumor activity against human RL cells xenografted BNX mouse assessed as time to achieve significant decrease in tumor volume at 5 mg/kg, iv administered as weekly qdx2 schedule; format: functional
[23] = Toxicity in iv dosed BALB/c mouse xenografted with mouse CT26 cells assessed as maximum tolerated dose; format: organism-based; settings: in vivo
[24] = species: Homo sapiens; test: Selectivity for chymotrypsin-like activity over trypsin-like activity of human 20S proteasome
[25] = test system: CT26; test: Antitumor activity against mouse CT26 cells xenografted in BALB/c mouse assessed as time to achieve significant decrease in tumor volume at 5 mg/kg, iv administered on day 3 post tumor challenge for weekly qdx2 schedule; format: functional
[26] = species: Homo sapiens; test: Selectivity for chymotrypsin-like activity over caspase-like activity of human 20S proteasome

| SMILES | remaining at 0.25 h, 4 µM [1] | IC50 [3] | hepatic extraction ratio at 1 µM [7] | solubility [8] | IC50 [10] | IC50 [11] | hepatic extraction ratio at 1 µM [13] | Activity [4] | IC50 [6] | IC50 [9] | IC50 [12] | Activity [18] | other results |
| --- | --- | --- | --- | --- | --- | --- | --- | --- | --- | --- | --- | --- | --- |
| CCOc1cc(C(=O)N[C@@H](COC)C(=O)N[C@@H](COC)C(=O)N[C@@H](Cc2ccccc2)C(=O)[C@@]2(C)CO2)no1 | 85% | 3.7 nM | 0.77 dimensionless ratio | – | 5 nM | 1.4 nM | 0.77 dimensionless ratio | 3% | 4.3 nM | 54 nM | 3 nM | – | Activity [14]: inactive; MTD [15]: 20 mg/kg; Activity [16]: inactive; MTD [17]: 20 mg/kg |
| Cc1cc(C(=O)N[C@@H](Cc2cscn2)C(=O)N[C@@H](Cc2ccccc2)C(=O)N[C@@H](CC(C)C)C(=O)[C@@]2(C)CO2)no1 | 20% | – | – | – | – | 6.7 nM | – | 63% | 15 nM | 77 nM | 56 nM | – | – |
| COC[C@H](NC(=O)c1ccon1)C(=O)N[C@@H](COC)C(=O)N[C@@H](Cc1ccccc1)C(=O)[C@@]1(C)CO1 | 85% | 44 nM | 0.42 dimensionless ratio | – | 93 nM | 73 nM | 0.49 dimensionless ratio | 34% | 43 nM | 756 nM | 47 nM | – | – |
| CC(C)C[C@H](NC(=O)CN1CCOCC1)C(=O)N[C@@H](Cc1ccccc1)C(=O)N[C@@H](CC(C)C)C(=O)[C@@]1(C)CO1 | 45% | – | – | – | – | 57 nM | – | – | 35 nM | 308 nM | 45 nM | 82% | Activity [19]: 37%; remaining at 0.25 h, 4 µM [20]: 90%; Activity [21]: 22%; Ratio [5]: 7900; hepatic extraction ratio at 1 µM ([13]; read-out: ERH): 0.95 |
| CC(C)C[C@H](NC(=O)c1cc(Cn2cncn2)on1)C(=O)N[C@@H](Cc1ccccc1)C(=O)N[C@@H](CC(C)C)C(=O)[C@@]1(C)CO1 | – | – | – | ≥ 1000 µg/mL | – | 13 nM | – | – | 35 nM | > 1000 nM | 62 nM | 105% | – |
| CC(C)C[C@H](NC(=O)c1cc(Cn2ccnc2)on1)C(=O)N[C@@H](Cc1ccccc1)C(=O)N[C@@H](CC(C)C)C(=O)[C@@]1(C)CO1 | – | – | – | ≥ 1000 µg/mL | – | 15 nM | – | – | 52 nM | > 1000 nM | 59 nM | 110% | – |
| CC(C)C[C@H](NC(=O)[C@H](CCc1ccccc1)NC(=O)CN1CCOCC1)C(=O)N[C@@H](Cc1ccccc1)C(=O)N[C@@H](CC(C)C)C(=O)[C@@]1(C)CO1 [CARFILZOMIB] | < 5% | 5.2 nM | – | – | – | 5.7 nM | – | – | 18 nM | 413 nM | 5.1 nM | 83% | Activity [22]: 35 days; Activity [19]: 77%; MTD [23]: 5 mg/kg; fold change (FC) [24]: > 100; remaining at 0.25 h, 4 µM [20]: 15%; Activity [21]: 109%; Activity [25]: 26 days; fold change (FC) [26]: > 100 |
| CC(C)C[C@H](NC(=O)c1cc(CN2CCN(C)CC2)on1)C(=O)N[C@@H](Cc1ccccc1)C(=O)N[C@@H](CC(C)C)C(=O)[C@@]1(C)CO1 | 40% | – | – | ≥ 1000 µg/mL | – | 94 nM | – | – | 189 nM | > 1000 nM | 124 nM | 101% | – |
| COC[C@H](NC(=O)c1cc(OC)no1)C(=O)N[C@@H](COC)C(=O)N[C@@H](Cc1ccccc1)C(=O)[C@@]1(C)CO1 | 100% | 14 nM | 0.64 dimensionless ratio | – | 36 nM | 50 nM | 0.54 dimensionless ratio | 19% | 12 nM | 269 nM | 10 nM | – | – |
| CC(C)C[C@H](NC(=O)c1cc(CN2CCOCC2)on1)C(=O)N[C@@H](Cc1ccccc1)C(=O)N[C@@H](CC(C)C)C(=O)[C@@]1(C)CO1 | 60% | – | – | 1480 µg/mL (≈ 2370 µM) | – | 4.1 nM | – | – | 22 nM | 70 nM | 11 nM | 29% | Ratio [5]: 28300 |

The next lines start with results.

| remaining at 0.25 h, 4 µM [1] | IC50 [3] | hepatic extraction ratio at 1 µM [7] | solubility [8] | IC50 [10] | IC50 [11] | hepatic extraction ratio at 1 µM [13] | SMILES | Activity [4] | IC50 [6] | IC50 [9] | IC50 [12] | Activity [18] | other results |
| --- | --- | --- | --- | --- | --- | --- | --- | --- | --- | --- | --- | --- | --- |
| 70% | 17 nM | 0.54 dimensionless ratio | 5880 µg/mL (≈ 12200 µM) | 238 nM | 11 nM | 0.67 dimensionless ratio | COC[C@H](NC(=O)c1cc(C)on1)C(=O)N[C@@H](COC)C(=O)N[C@@H](CC(C)C)C(=O)[C@@]1(C)CO1 | 21% | 22 nM | 145 nM | 48 nM | – | Activity [2]: 9%; Ratio [5]: 31800 |
| 90% | 11 nM | 0.59 dimensionless ratio | – | 21 nM | 24 nM | 0.59 dimensionless ratio | COC[C@H](NC(=O)c1cc(C)on1)C(=O)N[C@@H](COC)C(=O)N[C@@H](Cc1ccccc1)C(=O)[C@@]1(C)CO1 | 43% | 17 nM | 155 nM | 35 nM | – | – |
| 60% | – | – | 60 µg/mL (≈ 111 µM) | – | 1.8 nM | – | Cc1cc(C(=O)N[C@@H](CC(C)C)C(=O)N[C@@H](Cc2ccccc2)C(=O)N[C@@H](CC(C)C)C(=O)[C@@]2(C)CO2)no1 | – | 28 nM | 47 nM | 17 nM | – | Ratio [5]: 50900 |
| 70% | 9.3 nM | 0.69 dimensionless ratio | – | 41 nM | 3.1 nM | 0.69 dimensionless ratio | CCOc1cc(C(=O)N[C@@H](COC)C(=O)N[C@@H](COC)C(=O)N[C@@H](CC(C)C)C(=O)[C@@]2(C)CO2)no1 | 4% | 5.4 nM | 66 nM | 35 nM | – | – |
| 90% | – | 0.91 dimensionless ratio | 750 µg/mL (≈ 1420 µM) | – | 9.3 nM | 0.96 dimensionless ratio | COC[C@H](NC(=O)c1cc(C)on1)C(=O)N[C@@H](Cc1ccccc1)C(=O)N[C@@H](CC(C)C)C(=O)[C@@]1(C)CO1 | – | 40 nM | 75 nM | 36 nM | 9% | Activity [2]: 33%; Ratio [5]: 58600 |
| 100% | – | 0.28 dimensionless ratio | 1240 µg/mL (≈ 2740 µM) | – | 19 nM | 0.48 dimensionless ratio | COC[C@H](NC(=O)c1cc(C)on1)C(=O)N[C@@H](C)C(=O)N[C@@H](CC(C)C)C(=O)[C@@]1(C)CO1 | – | 28 nM | 276 nM | 57 nM | – | Activity [2]: 8% |
| 90% | 48 nM | 0.16 dimensionless ratio | – | 607 nM | 43 nM | 0.39 dimensionless ratio | COC[C@H](NC(=O)c1ccon1)C(=O)N[C@@H](COC)C(=O)N[C@@H](CC(C)C)C(=O)[C@@]1(C)CO1 | 14% | 37 nM | 260 nM | 168 nM | – | – |
| 35% | 23 nM | 0.4 dimensionless ratio | – | 22 nM | 11 nM | 0.37 dimensionless ratio | COC[C@H](NC(=O)c1cc(OC)no1)C(=O)N[C@@H](COC)C(=O)N[C@@H](CC(C)C)C(=O)[C@@]1(C)CO1 | 21% | 12 nM | 82 nM | 32 nM | – | – |

From ChEMBL document CHEMBL1138457, “Design and synthesis of an orally bioavailable and selective peptide epoxyketone proteasome inhibitor (PR-047)” (J Med Chem, 2009)
